From patent publication US20050175550A1, “Compositions for oral use” (priority 2000, published 2005)
≈ marks a conversion by molar mass, not a printed value.

What was measured:
Assay in all cases: MIC by agar plate dilution method on standard strains (Example 3)
Type in all cases: cell-based
Conditions in all cases: read-out: MIC
[1] = tested on: Staphylococcus epidermidis ATCC12228
Protocol: (§1) Minimum growth-inhibiting concentrations of trifluoromethionine and other antibacterial drugs on standard strains were determined by an agar plate dilution method according to the standard method of Japanese Society of Chemotherapy.
(§2) Drug solutions at a concentration 10 times as high as the maximum applicable concentration were prepared as original solutions of test drugs given in Table 2 (as to solvents used for this purpose, reference should be made also to Table 2). Serial two-fold dilution series of the original solutions were prepared at desired stages, and 1 ml each of the diluted drug solutions was added to 9 ml of media given in Table 3 to prepare drug plates. Concentration range of the individual drugs used are as follows: trifluoromethionine: 400-0.025 μg/ml (15 stages), tetracycline: 100-0.025 μg/ml (13 stages), and clarithromycin: 100-0.025 μg/ml (13 stages).
(§3) • 1) Bacterial solutions stocked at −80° C. were inoculated on agar media (as to media used, reference should be made to Table 3), and then incubated at 37° C. overnight. When desired, subculturing was conducted once more on the same agar media (by overnight incubation at 37° C.). • 2) Colonies growing on the agar media were sampled by a platinum loop, suspended in liquid media (reference should be made to Table 3) and statically incubated at 37° C. for 18 hours (preculturing). • 3) Preculturing was continued up to McFarland 0.5 (McFarland 0.5=about 10^8 CFU/ml), and then the culture broths were diluted with Muellar Hinton Broth to make 10^6 CFU/ml. 5 μl each of the diluted solutions were inoculated on the above-mentioned drug plates by an inoculator Microplanter.
(§4) Thus, bacterial solutions at about 10^8 CFU/ml can be easily prepared by use of McFarland 0.5. Bacterial solutions at such a turbidity are commercially available, but can be easily prepared. McFarland 0.5 can be obtained by adding 0.5 ml of an aqueous 0.048 mol/l barium chloride solution to 99.5 ml of 1% v/v (0.18 mol/l) sulfuric acid. • 4) The individual bacteria were incubated at 37° C. for 18-20 hours and then the growth was determined in the same manner as in Example 2 to obtain minimum growth-inhibiting concentrations.

[2] = tested on: Staphylococcus epidermidis ATCC29886
Protocol: as §1, §2, §3, §4

[3] = tested on: Bacillus subtilis ATCC6633
Protocol: as §3, with “Drug solutions at a concentration 10 times as high as the maximum applicable concentration were prepared as original solutions of test drugs given in Table 2 (as to solvents used for this purpose, reference should be made also to Table 2). Serial two-fold dilution series of the original solutions were prepared at desired stages, and 1 ml each of the diluted drug solutions was added to 9 ml of media given in Table 3 to prepare drug plates. […] • 1)” for “• 1)”, “inoculator Microplanter. […] Thus, bacterial solutions at about 10^8 CFU/ml can be easily prepared by use of McFarland 0.5. Bacterial solutions at such a turbidity are commercially available, but can be easily prepared.” for “inoculator Microplanter.”

[4] = tested on: Enterococcus faecalis ATCC29247
Protocol: as §3, with “Drug solutions at a concentration 10 times as high as the maximum applicable concentration were prepared as original solutions of test drugs given in Table 2 (as to solvents used for this purpose, reference should be made also to Table 2). Serial two-fold dilution series of the original solutions were prepared at desired stages, and 1 ml each of the diluted drug solutions was added to 9 ml of media given in Table 3 to prepare drug plates. […] • 1)” for “• 1)”, “inoculator Microplanter. […] Thus, bacterial solutions at about 10^8 CFU/ml can be easily prepared by use of McFarland 0.5. Bacterial solutions at such a turbidity are commercially available, but can be easily prepared.” for “inoculator Microplanter.”

[5] = tested on: Enterococcus faecium ATCC19434
Protocol: as §3, with “Drug solutions at a concentration 10 times as high as the maximum applicable concentration were prepared as original solutions of test drugs given in Table 2 (as to solvents used for this purpose, reference should be made also to Table 2). Serial two-fold dilution series of the original solutions were prepared at desired stages, and 1 ml each of the diluted drug solutions was added to 9 ml of media given in Table 3 to prepare drug plates. […] • 1)” for “• 1)”, “inoculator Microplanter. […] Thus, bacterial solutions at about 10^8 CFU/ml can be easily prepared by use of McFarland 0.5. Bacterial solutions at such a turbidity are commercially available, but can be easily prepared.” for “inoculator Microplanter.”

[6] = tested on: Escherichia coli ATCC25922
Protocol: as §3, with “Drug solutions at a concentration 10 times as high as the maximum applicable concentration were prepared as original solutions of test drugs given in Table 2 (as to solvents used for this purpose, reference should be made also to Table 2). Serial two-fold dilution series of the original solutions were prepared at desired stages, and 1 ml each of the diluted drug solutions was added to 9 ml of media given in Table 3 to prepare drug plates. […] • 1)” for “• 1)”, “inoculator Microplanter. […] Thus, bacterial solutions at about 10^8 CFU/ml can be easily prepared by use of McFarland 0.5. Bacterial solutions at such a turbidity are commercially available, but can be easily prepared.” for “inoculator Microplanter.”

[7] = tested on: Escherichia coli ATCC35218
Protocol: as §3, with “Drug solutions at a concentration 10 times as high as the maximum applicable concentration were prepared as original solutions of test drugs given in Table 2 (as to solvents used for this purpose, reference should be made also to Table 2). Serial two-fold dilution series of the original solutions were prepared at desired stages, and 1 ml each of the diluted drug solutions was added to 9 ml of media given in Table 3 to prepare drug plates. […] • 1)” for “• 1)”, “inoculator Microplanter. […] Thus, bacterial solutions at about 10^8 CFU/ml can be easily prepared by use of McFarland 0.5. Bacterial solutions at such a turbidity are commercially available, but can be easily prepared.” for “inoculator Microplanter.”

[8] = tested on: Haemophilus influenzae ATCC33391
Protocol: as §3, with “Drug solutions at a concentration 10 times as high as the maximum applicable concentration were prepared as original solutions of test drugs given in Table 2 (as to solvents used for this purpose, reference should be made also to Table 2). Serial two-fold dilution series of the original solutions were prepared at desired stages, and 1 ml each of the diluted drug solutions was added to 9 ml of media given in Table 3 to prepare drug plates. […] • 1)” for “• 1)”, “inoculator Microplanter. […] Thus, bacterial solutions at about 10^8 CFU/ml can be easily prepared by use of McFarland 0.5. Bacterial solutions at such a turbidity are commercially available, but can be easily prepared.” for “inoculator Microplanter.”

[9] = tested on: Haemophilus influenzae ATCC33533
Protocol: as §3, with “Drug solutions at a concentration 10 times as high as the maximum applicable concentration were prepared as original solutions of test drugs given in Table 2 (as to solvents used for this purpose, reference should be made also to Table 2). Serial two-fold dilution series of the original solutions were prepared at desired stages, and 1 ml each of the diluted drug solutions was added to 9 ml of media given in Table 3 to prepare drug plates. […] • 1)” for “• 1)”, “inoculator Microplanter. […] Thus, bacterial solutions at about 10^8 CFU/ml can be easily prepared by use of McFarland 0.5. Bacterial solutions at such a turbidity are commercially available, but can be easily prepared.” for “inoculator Microplanter.”

[10] = tested on: Haemophilus influenzae ATCC49247
Protocol: as §3, with “Drug solutions at a concentration 10 times as high as the maximum applicable concentration were prepared as original solutions of test drugs given in Table 2 (as to solvents used for this purpose, reference should be made also to Table 2). Serial two-fold dilution series of the original solutions were prepared at desired stages, and 1 ml each of the diluted drug solutions was added to 9 ml of media given in Table 3 to prepare drug plates. […] • 1)” for “• 1)”, “inoculator Microplanter. […] Thus, bacterial solutions at about 10^8 CFU/ml can be easily prepared by use of McFarland 0.5. Bacterial solutions at such a turbidity are commercially available, but can be easily prepared.” for “inoculator Microplanter.”

[11] = tested on: Haemophilus influenzae ATCC49766
Protocol: as §3, with “Drug solutions at a concentration 10 times as high as the maximum applicable concentration were prepared as original solutions of test drugs given in Table 2 (as to solvents used for this purpose, reference should be made also to Table 2). Serial two-fold dilution series of the original solutions were prepared at desired stages, and 1 ml each of the diluted drug solutions was added to 9 ml of media given in Table 3 to prepare drug plates. […] • 1)” for “• 1)”, “inoculator Microplanter. […] Thus, bacterial solutions at about 10^8 CFU/ml can be easily prepared by use of McFarland 0.5. Bacterial solutions at such a turbidity are commercially available, but can be easily prepared.” for “inoculator Microplanter.”

[12] = tested on: Klebsiella pneumoniae ATCC700603
Protocol: as §3, with “Drug solutions at a concentration 10 times as high as the maximum applicable concentration were prepared as original solutions of test drugs given in Table 2 (as to solvents used for this purpose, reference should be made also to Table 2). Serial two-fold dilution series of the original solutions were prepared at desired stages, and 1 ml each of the diluted drug solutions was added to 9 ml of media given in Table 3 to prepare drug plates. […] • 1)” for “• 1)”, “inoculator Microplanter. […] Thus, bacterial solutions at about 10^8 CFU/ml can be easily prepared by use of McFarland 0.5. Bacterial solutions at such a turbidity are commercially available, but can be easily prepared.” for “inoculator Microplanter.”

[13] = tested on: Micrococcus luteus ATCC9341
Protocol: as §3, with “Drug solutions at a concentration 10 times as high as the maximum applicable concentration were prepared as original solutions of test drugs given in Table 2 (as to solvents used for this purpose, reference should be made also to Table 2). Serial two-fold dilution series of the original solutions were prepared at desired stages, and 1 ml each of the diluted drug solutions was added to 9 ml of media given in Table 3 to prepare drug plates. […] • 1)” for “• 1)”, “inoculator Microplanter. […] Thus, bacterial solutions at about 10^8 CFU/ml can be easily prepared by use of McFarland 0.5. Bacterial solutions at such a turbidity are commercially available, but can be easily prepared.” for “inoculator Microplanter.”

[14] = tested on: Moraxella (Branhamella) catarrhalis ATCC25238
Protocol: as §3, with “Drug solutions at a concentration 10 times as high as the maximum applicable concentration were prepared as original solutions of test drugs given in Table 2 (as to solvents used for this purpose, reference should be made also to Table 2). Serial two-fold dilution series of the original solutions were prepared at desired stages, and 1 ml each of the diluted drug solutions was added to 9 ml of media given in Table 3 to prepare drug plates. […] • 1)” for “• 1)”, “inoculator Microplanter. […] Thus, bacterial solutions at about 10^8 CFU/ml can be easily prepared by use of McFarland 0.5. Bacterial solutions at such a turbidity are commercially available, but can be easily prepared.” for “inoculator Microplanter.”

MIC [1]: 0.2 µg/mL (≈ 0.267 µM)
MIC [2]: 0.39 µg/mL (≈ 0.521 µM)
MIC [3]: 0.1 µg/mL (≈ 0.134 µM)
MIC [4]: 1.56 µg/mL (≈ 2.09 µM)
MIC [5]: 1.56 µg/mL (≈ 2.09 µM)
MIC [6]: 50 µg/mL (≈ 66.8 µM)
MIC [7]: 25 µg/mL (≈ 33.4 µM)
MIC [8]: 6.25 µg/mL (≈ 8.36 µM)
MIC [9]: 3.13 µg/mL (≈ 4.18 µM)
MIC [10]: 6.25 µg/mL (≈ 8.36 µM)
MIC [11]: 6.25 µg/mL (≈ 8.36 µM)
MIC [12]: > 100 µg/mL
MIC [13]: 0.05 µg/mL (≈ 0.0668 µM)
MIC [14]: 0.1 µg/mL (≈ 0.134 µM)
SMILES: CC[C@H]1OC(=O)[C@H](C)[C@@H](O[C@H]2C[C@@](C)(OC)[C@@H](O)[C@H](C)O2)[C@H](C)[C@@H](O[C@@H]2O[C@H](C)C[C@H](N(C)C)[C@H]2O)[C@](C)(OC)C[C@@H](C)C(=O)[C@H](C)[C@@H](O)[C@]1(C)O [CAM, Clarithromycin]
